The source of these data is ChEMBL document CHEMBL1201862, “PubChem BioAssay data set” (2004).

One may read the AC50 as the concentration at which the activity in the assay is half-maximal. As usually defined, the IC50 is the concentration that gives 50% inhibition. A word on the EC50: it is the concentration that produces a half-maximal response.

Activity calls are given as the source filed them. Where only a bound is given, the exact number is not on record here.

Targets include Cytochrome P450 2C9 (Homo sapiens, UniProt P11712); Cytochrome P450 2D6 (Homo sapiens, UniProt P10635); Cytochrome P450 3A4 (Homo sapiens, UniProt P08684).
In another test the target is Cytochrome P450 2C19 (Homo sapiens, UniProt P33261). The experiment in a line: Cytochrome panel assay with activity outcomes. Panel member name: p450-cyp2c19 Compounds with AC50 equal or less than 10 uM are considered active. The test is classed as functional. The settings on record: read-out: AC50.
Sequence of Cytochrome P450 2C19 (P33261 whole entry): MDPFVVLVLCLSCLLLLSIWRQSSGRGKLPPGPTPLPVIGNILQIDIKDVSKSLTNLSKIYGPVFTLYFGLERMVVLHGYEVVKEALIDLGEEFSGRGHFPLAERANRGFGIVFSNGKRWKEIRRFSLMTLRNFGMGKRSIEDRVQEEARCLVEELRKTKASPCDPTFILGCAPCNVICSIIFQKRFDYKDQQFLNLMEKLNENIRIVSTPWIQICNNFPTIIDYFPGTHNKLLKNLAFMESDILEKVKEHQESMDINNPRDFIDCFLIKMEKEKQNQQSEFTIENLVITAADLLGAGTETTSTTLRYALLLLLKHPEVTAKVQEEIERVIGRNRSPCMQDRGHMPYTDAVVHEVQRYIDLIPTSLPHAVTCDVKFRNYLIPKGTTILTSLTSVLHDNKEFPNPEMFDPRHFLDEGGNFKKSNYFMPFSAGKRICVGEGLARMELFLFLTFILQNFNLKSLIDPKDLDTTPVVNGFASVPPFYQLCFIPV
The target of another test is T1, Cytochrome P450 1A2 (Homo sapiens, UniProt P05177).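 Note: PubChem cytochrome P450 panel assay, CYP1A2 panel member.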
T1 sequence (P05177 whole entry): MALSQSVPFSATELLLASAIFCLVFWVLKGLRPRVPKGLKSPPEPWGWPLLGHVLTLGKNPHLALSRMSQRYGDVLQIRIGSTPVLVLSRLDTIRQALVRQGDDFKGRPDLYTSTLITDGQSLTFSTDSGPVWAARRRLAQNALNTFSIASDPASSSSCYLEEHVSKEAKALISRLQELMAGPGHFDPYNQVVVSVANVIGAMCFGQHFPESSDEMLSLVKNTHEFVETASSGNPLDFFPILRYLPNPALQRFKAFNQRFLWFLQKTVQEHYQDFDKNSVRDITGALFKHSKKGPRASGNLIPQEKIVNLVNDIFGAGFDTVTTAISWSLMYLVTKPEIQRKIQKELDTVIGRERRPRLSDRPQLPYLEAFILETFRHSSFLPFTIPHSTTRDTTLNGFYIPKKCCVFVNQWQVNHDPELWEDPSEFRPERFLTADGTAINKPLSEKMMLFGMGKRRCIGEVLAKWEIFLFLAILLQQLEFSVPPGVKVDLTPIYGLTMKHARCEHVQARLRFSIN

Test [1] is described as follows: Luminescence Cell-Based Dose Retest to Confirm Inhibitors of Cancer Stem Cells. [Related pubchem assays (depositor defined):AID2717, AID2721]. The class given is functional. The note with it: Homo sapiens.
In test [2] the target is T2, Rac GTPase-activating protein 1 (Homo sapiens, UniProt Q9H0H5).
T2 sequence (Q9H0H5 whole entry): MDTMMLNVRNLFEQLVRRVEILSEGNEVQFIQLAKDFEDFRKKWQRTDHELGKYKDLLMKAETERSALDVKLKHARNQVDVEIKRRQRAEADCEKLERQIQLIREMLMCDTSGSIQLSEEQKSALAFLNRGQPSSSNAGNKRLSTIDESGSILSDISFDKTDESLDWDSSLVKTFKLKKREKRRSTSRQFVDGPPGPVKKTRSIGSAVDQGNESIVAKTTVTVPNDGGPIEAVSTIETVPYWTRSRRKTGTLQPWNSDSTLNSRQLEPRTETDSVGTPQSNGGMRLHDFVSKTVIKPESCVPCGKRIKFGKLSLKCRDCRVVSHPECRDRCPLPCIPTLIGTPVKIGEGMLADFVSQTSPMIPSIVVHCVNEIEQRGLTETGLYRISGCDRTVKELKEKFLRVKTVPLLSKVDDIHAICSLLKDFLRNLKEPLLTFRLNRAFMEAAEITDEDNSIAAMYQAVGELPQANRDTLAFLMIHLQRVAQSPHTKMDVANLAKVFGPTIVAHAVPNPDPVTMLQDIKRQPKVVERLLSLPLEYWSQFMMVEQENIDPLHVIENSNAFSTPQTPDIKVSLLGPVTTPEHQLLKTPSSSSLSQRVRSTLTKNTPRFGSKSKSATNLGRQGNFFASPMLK
Nature of the test: blockers of MgcRacGAP-driven Rac1 GTP hydrolysis – biochemical, ADP Hunter fluorescence, primary and confirmatory, confirmation (AID 624330). The class given is functional.

The nature of test [3]: viability of PTEN-deleted HCT116 cells – cell-based, HCT116 PTEN knockout, dose response (AID 1047).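 Note: HCT116 colon tumor cells with PTEN knocked out; cells exposed to compound for 60 hours before readout; potency for loss of cell viability measured by luminescence.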 The test is classed as functional.
Test [4] in a line: viability of HCT116 lacking mutant beta-catenin – cell-based, human colon tumor, dose response (AID 1045).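 Note: HCT116 colon tumor cells with beta catenin knocked out; cells exposed to compound for 60 hours.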 The test is classed as functional.
Test [5] has as its system Streptococcus sp. 'group A'. Nature of the test: Streptococcus pyogenes SK(-)GAS viability under kanamycin – luminescence, BacTiterGlo, confirmation, counter-screen for streptokinase expression inhibitor project, dose response (AID 1900). The class given is functional, organism-based.
The next test concerns Streptococcus. Nature of the test: GAS UMAA2166 growth inhibition – luminescence, BacTiterGlo, counter-screen for streptokinase expression inhibitor project, dose response (AID 1915).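 Note: potency for reduction of bacterial viability or growth.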 The class given is functional, organism-based. Background: A counterscreen serves to expose hits that act by an unwanted route or on another target.
Test [6] concerns the target T3, Heat shock factor protein 1 (Mus musculus, UniProt P38532).
T3 sequence (P38532 whole entry): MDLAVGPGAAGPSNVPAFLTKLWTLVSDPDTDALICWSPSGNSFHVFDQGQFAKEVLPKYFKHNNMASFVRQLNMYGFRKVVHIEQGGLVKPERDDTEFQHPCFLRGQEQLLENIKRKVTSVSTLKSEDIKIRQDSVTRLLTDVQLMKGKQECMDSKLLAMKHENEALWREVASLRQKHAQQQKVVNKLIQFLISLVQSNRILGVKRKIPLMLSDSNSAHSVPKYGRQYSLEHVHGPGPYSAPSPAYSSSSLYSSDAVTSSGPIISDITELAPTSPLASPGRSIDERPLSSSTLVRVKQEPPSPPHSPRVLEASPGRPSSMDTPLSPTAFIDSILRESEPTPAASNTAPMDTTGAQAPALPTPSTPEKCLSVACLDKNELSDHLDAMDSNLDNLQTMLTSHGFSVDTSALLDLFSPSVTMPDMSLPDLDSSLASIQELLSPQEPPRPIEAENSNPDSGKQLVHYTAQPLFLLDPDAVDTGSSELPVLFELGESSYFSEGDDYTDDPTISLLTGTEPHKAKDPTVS
The experiment in a line: decrease of HSF1-responsive luciferase luminescence – cell-based, NIH3T3, dose retest, confirmation (AID 2382).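 Note: NIH3T3 fibroblasts with HSF1-driven luciferase reporter stressed by proteasome inhibitor MG132; luminescence from HSF1-driven luciferase expression after 8 hours of MG132 stress.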 The class given is functional.

Sequence of Cytochrome P450 2C9 (P11712 whole entry): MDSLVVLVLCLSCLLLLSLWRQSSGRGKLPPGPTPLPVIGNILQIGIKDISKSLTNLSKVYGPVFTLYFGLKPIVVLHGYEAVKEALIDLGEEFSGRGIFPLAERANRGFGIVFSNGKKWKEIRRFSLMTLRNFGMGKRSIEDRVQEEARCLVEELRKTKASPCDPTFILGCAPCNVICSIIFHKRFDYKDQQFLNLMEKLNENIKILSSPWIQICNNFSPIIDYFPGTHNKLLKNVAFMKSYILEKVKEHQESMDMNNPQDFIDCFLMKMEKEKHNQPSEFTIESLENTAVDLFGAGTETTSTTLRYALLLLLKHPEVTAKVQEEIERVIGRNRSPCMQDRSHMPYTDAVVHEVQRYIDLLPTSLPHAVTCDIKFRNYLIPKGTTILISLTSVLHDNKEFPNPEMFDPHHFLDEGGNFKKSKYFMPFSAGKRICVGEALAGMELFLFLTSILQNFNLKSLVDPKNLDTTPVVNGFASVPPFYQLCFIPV
Sequence of Cytochrome P450 3A4 (P08684 whole entry): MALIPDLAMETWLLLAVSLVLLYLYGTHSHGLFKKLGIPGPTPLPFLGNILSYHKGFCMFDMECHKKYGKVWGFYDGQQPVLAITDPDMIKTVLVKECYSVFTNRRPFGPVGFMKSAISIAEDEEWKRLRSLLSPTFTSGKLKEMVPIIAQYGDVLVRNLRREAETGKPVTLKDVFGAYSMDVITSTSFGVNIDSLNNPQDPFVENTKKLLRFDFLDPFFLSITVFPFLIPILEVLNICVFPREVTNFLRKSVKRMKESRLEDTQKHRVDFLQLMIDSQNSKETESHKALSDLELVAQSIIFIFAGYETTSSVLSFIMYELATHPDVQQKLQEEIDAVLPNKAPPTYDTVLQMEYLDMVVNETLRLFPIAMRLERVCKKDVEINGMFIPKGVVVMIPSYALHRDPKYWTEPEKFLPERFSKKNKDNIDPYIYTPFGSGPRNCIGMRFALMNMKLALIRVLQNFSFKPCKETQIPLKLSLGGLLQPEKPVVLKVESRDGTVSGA
Sequence of Cytochrome P450 2D6 (P10635 whole entry): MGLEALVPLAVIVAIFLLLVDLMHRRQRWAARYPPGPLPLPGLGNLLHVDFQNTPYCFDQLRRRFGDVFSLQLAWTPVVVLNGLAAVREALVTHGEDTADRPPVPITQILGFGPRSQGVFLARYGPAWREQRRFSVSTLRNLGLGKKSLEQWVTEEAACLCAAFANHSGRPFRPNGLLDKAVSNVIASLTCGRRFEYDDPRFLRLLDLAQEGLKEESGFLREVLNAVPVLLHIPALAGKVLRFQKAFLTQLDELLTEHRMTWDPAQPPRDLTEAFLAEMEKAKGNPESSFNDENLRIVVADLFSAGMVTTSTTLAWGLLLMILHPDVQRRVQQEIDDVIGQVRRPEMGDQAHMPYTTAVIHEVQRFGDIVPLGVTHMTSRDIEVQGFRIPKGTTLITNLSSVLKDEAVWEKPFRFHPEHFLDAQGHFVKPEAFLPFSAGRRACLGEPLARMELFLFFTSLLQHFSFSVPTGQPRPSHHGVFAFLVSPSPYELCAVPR

Regarding `C=C(CC1([C@@H](NP(=O)(c2ccccc2)c2ccccc2)[C@H]2C[C@@H]2CCCC)CC1)c1cccc(OC)c1`, the AC50 is 39.8 µM (inconclusive) on Cytochrome P450 2C9, 39.8 µM (inconclusive) at Cytochrome P450 2D6, 15.8 µM (inconclusive) at Cytochrome P450 2C19 and 12.6 µM (inconclusive) at Cytochrome P450 1A2. In the case of `CCCCOc1ccc(C(=O)Nc2ccc3c(c2)OCO3)cc1`, the AC50 in test [1] was 1.46 µM (active).

`CC1CCN(c2ccc(NC(=S)NC(=O)c3ccco3)cc2)CC1`: the AC50 on Cytochrome P450 2C9 is 1.41 µM (inconclusive); on Cytochrome P450 2C19, 3.98 µM (inconclusive); at Cytochrome P450 1A2 it was 28.2 µM (inconclusive); on Cytochrome P450 3A4, 17.8 µM (inconclusive). Take `CC(=O)Oc1ccc(C2=NN(c3ccccc3)C(c3ccccc3)C2)cc1` (stereo not given): in test [1], the AC50 was 2.63 µM (active).

`Cc1ccc(Nc2cc(C)c3ccc(O)cc3n2)cc1C`: the AC50 in test [1] is 4.45 µM (active).

Consider `Cc1ccc(CN2CCSc3ccc(C(=O)NCc4ccco4)cc32)cc1`, for which, in [1], the AC50 was 12.1 µM (active). Turning to `CC(=O)Nc1ccc2c(c1)/C(=C/c1ccc([N+](C)(C)C)cc1)c1ccccc1-2`, the AC50 was 3.16 µM (inconclusive) at Cytochrome P450 2C9 and 1.58 µM (inconclusive) at Cytochrome P450 1A2. For the compound `O=[N+]([O-])c1ccc(COc2ccc(-c3[nH]ncc3-c3ccccc3)c(O)c2)cc1`, the AC50 in test [1] was 4.73 µM (active). For the compound `Cn1c(=O)c(C(=O)NNC(=O)c2ccc(Br)cc2)c(O)c2ccccc21`, the AC50 in test [1] was 3.03 µM (active). For `Cc1cccc(-n2ncc3c(N4CCCc5ccccc54)ncnc32)c1`, in [1], the AC50 is 7.31 µM (active). With `Cc1ccc(C(=O)NC(=S)Nc2ccc(S(=O)(=O)N3CCN(C)CC3)cc2)cc1`, the figures for the AC50 on Cytochrome P450 1A2 and at Cytochrome P450 3A4 were 12.6 µM (inconclusive) and 0.891 µM (inconclusive), respectively. For the compound `Cc1ccccc1CN1CCN(C(=O)c2cccc3ccccc23)CC1`, the IC50 in test [2] was 215 µM (active). In the case of `COCCNC(=S)Nc1cc(OC)c(OC)cc1C#N`, the IC50 in test [2] is 204 µM (active).

`COc1ccc(C2c3c(ncn(Cc4ccco4)c3=N)Oc3ccc4ccccc4c32)cc1` (stereo not given): the EC50 in [3] was 9.97 µM (active); in test [4], 8.89 µM (active). For the same compound, in test [1], the AC50 was 4.48 µM (active). On to `O=C(c1cccc(F)c1)N1CCC2(CCN(Cc3ccncc3)CC2)CC1`, for which the AC50 on Cytochrome P450 2D6 is 12.6 µM (inconclusive); at Cytochrome P450 2C19, 25.1 µM (inconclusive); at Cytochrome P450 1A2, 12.6 µM (inconclusive); at Cytochrome P450 3A4, 15.8 µM (inconclusive). For `C=C(C)COc1ccc(-c2[nH]nc(C)c2-c2ccc(Br)cc2)c(O)c1`, the EC50 in test [5] was 2.99 µM (active); in the test on Streptococcus, 4.72 µM (active). Besides, the AC50 in test [1] is 0.692 µM (active). For `COc1cc(/C=C/C(=O)OCC(=O)N2CCN(C(=O)c3ccco3)CC2)ccc1O`, in [2], the IC50 is 44.8 µM (active).

`CN(C)C(=O)/C(C#N)=C\c1cc(Br)c(Sc2ccc(Cl)cc2)o1`: in test [1], the AC50 is 4.82 µM (active).

Regarding `O=c1c(-c2cccs2)nc2cnc(N3CCOCC3)nc2n1Cc1cccs1`, the values for the AC50 at Cytochrome P450 1A2 and on Cytochrome P450 3A4 were 15.8 µM (inconclusive) and 10 µM (inconclusive), respectively. Regarding `COc1ccc(-c2c[nH]nc2-c2ccc(O)cc2O)cc1OC`, the IC50 in test [2] was 60.2 µM (active).

For the compound `C#CCOCCOCCOCCNc1nc(N2CCN(C(=O)CCCCCCCCCCNC(=O)Cn3cc(C[C@@H](C)O)nn3)CC2)nc(N2CCN(C(=O)CCCCCCCCCCNC(=O)[C@@H]([C@H](C)O)n3cc(C)nn3)CC2)n1`, the AC50 in [1] is 4.67 µM (active).

For `Cc1[nH]n(-c2ccc([N+](=O)[O-])cc2)c(=O)c1/C=N/CCN1CCN(C(=O)C(C)C)CC1`, in test [1], the AC50 is 4.61 µM (active). Further, the EC50 in test [6] is reported as > 195 µM (not active).

As to `Oc1ccc(/N=C(\S)Nc2ccc(O)cc2)cc1`, the IC50 in test [2] is 41.7 µM (active).
